Test results as given in patent publication US11717500B2, “Treatment of spondyloarthritis” (PHARMACYL AB, priority 2020, dated 2023).
pIC50: −log10 of the molar value. Where a name gives a salt, the structure may show the parent alone. Read-outs that look alike come from different tables or passages of the source.

Legend:
[1] = tested on: LPS-induced TNF-α production in RAW264.7 murine macrophage cells; assay: Suppression of LPS-induced TNF-α production in RAW264.7 macrophages (ELISA); format: cell-based; details: Mus musculus
From the text: Macrophages serve a critical role in the initiation and propagation of inflammatory responses by releasing proinflammatory mediators, such as TNF-α. Lipopolysaccharide (LPS) is a potent initiator of an inflammatory response. During LPS stimulation, NF-κB signaling is activated to regulate the transcription of numerous genes involved in immunity and inflammation to produce proinflammatory cytokines, such as TNF-α. Suppression of LPS-induced TNF-α production in RAW264.7 macrophages treated with AABZ was investigated by evaluation of the generation of TNF-α.
The RAW264.7 macrophage line was maintained in DMEM supplemented with 5% FBS at 37° C. in a 5% CO2-humidified air environment. The RAW264.7 cells were seeded in 96-well plates at a density of 1×10^5/ml and a volume of 200 μl/well. The cells were incubated for 24 h in medium supplemented with 10% FBS and were then pre-incubated with or without the indicated concentrations of test substances for 2 h prior to the addition of LPS (1 μg/ml). The supernatants were subsequently harvested at various time points and production of the proinflammatory cytokine TNF-α in the culture medium was determined using a commercially available enzyme-linked immunosorbent assay (ELISA) kit according to the manufacturer's protocol.
Effects of some AABZs of the invention at 1 mM on LPS-induced TNF-production in RAW264.7 murine macrophage cells are shown in Table 2.

[2] = tested on: NFAT; details: T cells; cited from earlier work
[3] = tested on: NF-κB; details: T cells; cited from earlier work
[4] = target: dopamine D2 receptor (Homo sapiens (Human), UniProt P14416); assay: Dopamine D2 receptor affinity, in vitro radioligand binding with 125I-spiperone; details: 125I-spiperone as radioactive ligand
dopamine D2 receptor, sequence (P14416 whole entry, species assumed): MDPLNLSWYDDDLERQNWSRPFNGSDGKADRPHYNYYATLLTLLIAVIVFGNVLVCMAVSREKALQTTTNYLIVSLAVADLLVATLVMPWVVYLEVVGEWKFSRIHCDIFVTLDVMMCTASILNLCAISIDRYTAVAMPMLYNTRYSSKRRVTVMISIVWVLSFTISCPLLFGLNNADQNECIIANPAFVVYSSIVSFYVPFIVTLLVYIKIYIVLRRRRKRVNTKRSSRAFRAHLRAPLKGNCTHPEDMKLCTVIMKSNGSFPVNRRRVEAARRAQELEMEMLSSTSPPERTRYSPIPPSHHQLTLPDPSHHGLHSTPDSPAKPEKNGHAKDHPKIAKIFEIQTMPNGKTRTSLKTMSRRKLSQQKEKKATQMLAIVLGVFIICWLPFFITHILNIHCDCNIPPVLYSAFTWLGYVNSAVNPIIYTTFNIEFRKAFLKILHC
From the text: It is well-known that drug compounds that have an affinity for the striatal dopamine D2 may give rise to adverse side effects, such as short-term extrapyramidal disorders and tardive dyskinesia.

[5] = tested on: IκBβ; details: cited from earlier work
[6] = tested on: AP-1; details: T cells; cited from earlier work
[7] = RAW264.7, read-out: % Inhibition of TNF-production

Row | Structure (SMILES) | inhibition at 1000 µM [1, 7] [%] | pIC50 [4] | other results
1 | CCN(CC)CCNC(=O)c1ccc(NC(C)=O)cc1 [4-Acetamido-N-[2-(diethylamino)ethyl]benzamide hydrochloride] |  |  | inhibition at 1000 µM ([1]; 1 mM, LPS 1 μg/ml, RAW264.7 murine macrophage cells, read-out: % Inhibition of TNF-production): 56%
2 | CCN(CC)CCNC(=O)c1ccc(NC(=O)C(C)C)c(Cl)c1 [4-Isobutyrylamino-3-chloro-N-[2-(diethylamino)ethyl]benzamide hydrochloride] | 63 |  | 
3 | CCC(=O)Nc1ccc(C(=O)NCCN(CC)CC)cc1Cl [4-Propanoylamino-3-chloro-N-[2-(diethylamino)ethyl]benzamide hydrochloride] | 50 |  | 
4 | CCN(CC)CCNC(=O)c1ccc(NC(C)=O)c(Cl)c1 [Cpd A, 4-Acetamido-3-chloro-N-[2-(diethylamino)ethyl]benzamide hydrochloride] | 45 | 3.01 | effect on NFAT activity [2]: inhibit activities; effect on NF-κB activity [3]: inhibit activities; effect on breakdown of IκBβ [5]: inhibit breakdown; effect on AP-1 activity [6]: induce AP-1 activity
5 | CCN(CC)CCNC(=O)c1ccc(N)c(Cl)c1 [Declopramide, declopramide] |  | 4.41 | 
